Publication PMC12892976, “Alkylation-based optimization of antifungal FPPS inhibitors yields a potent, broad-spectrum lipophilic zoledronate derivative” (mBio, 2025)
≈ marks a conversion by molar mass, not a printed value.

Columns and labels:
[1] = tested on: Rhizopus oryzae; assay: MIC broth microdilution (CLSI); type: cell-based; conditions: Rhizopus oryzae 04-14-364-1703
Description: (§1) Antifungal susceptibility was determined by broth microdilution according to the CLSI guidelines described in M27-Ed4 ([16]).

[2] = tested on: Cryptococcus gattii; assay: MIC broth microdilution (CLSI); type: cell-based; conditions: Cryptococcus gattii PNG27
Description: as §1

[3] = tested on: Cryptococcus bacillisporus; assay: MIC broth microdilution (CLSI); type: cell-based; conditions: Cryptococcus bacillisporus NIH179
Description: as §1

[4] = tested on: Cryptococcus tetragattii; assay: MIC broth microdilution (CLSI); type: cell-based; conditions: Cryptococcus tetragattii WM779
Description: as §1

[5] = tested on: Fusarium oxysporum; assay: MIC broth microdilution (CLSI); type: cell-based; conditions: Fusarium oxysporum 07-200-3012
Description: as §1

[6] = tested on: Lomentospora prolificans; assay: MIC broth microdilution (CLSI); type: cell-based; conditions: Lomentospora prolificans 80-16-101-2445
Description: as §1

[7] = tested on: Scedosporium apiospermum; assay: MIC broth microdilution (CLSI); type: cell-based; conditions: Scedosporium apiospermum 04-16-022-2268
Description: as §1

[8] = tested on: Pichia kudriavzevii; assay: MIC broth microdilution (CLSI); type: cell-based; conditions: Pichia kudriavzavii ATCC 6258
Description: Antifungal susceptibility was determined by broth microdilution according to the CLSI guidelines described in M27-Ed4 ([16]). […] MFC was determined by back-plating drug-treated cultures from MIC broths onto SDA plates. The MFC was defined as the lowest concentration from which no colonies could be cultured.

[9] = tested on: Candida auris; assay: MIC broth microdilution (CLSI); type: cell-based; conditions: Candida auris CDC-0384
Description: as §1

[10] = tested on: Candida tropicalis; assay: MIC broth microdilution (CLSI); type: cell-based; conditions: Candida tropicalis M230640
Description: as §1

[11] = tested on: Candida dubliniensis; assay: MIC broth microdilution (CLSI); type: cell-based; conditions: Candida dubliniensis M230642
Description: as §1

[12] = tested on: Aspergillus niger; assay: MIC broth microdilution (CLSI); type: cell-based; conditions: Aspergillus niger 111
Description: as §1

[13] = tested on: Aspergillus terreus; assay: MIC broth microdilution (CLSI); type: cell-based; conditions: Aspergillus terreus 75-16-089-2500
Description: as §1

[14] = tested on: Aspergillus lentulus; assay: MIC broth microdilution (CLSI); type: cell-based; conditions: Aspergillus lentulus DTO 341-G7
Description: as §1

[15] = tested on: Aspergillus felis; assay: MIC broth microdilution (CLSI); type: cell-based; conditions: Aspergillus felis IHE87256683D6
Description: as §1

[16] = tested on: Aspergillus frankstonensis; assay: MIC broth microdilution (CLSI); type: cell-based; conditions: Aspergillus frankstonensis DTO 341-F3
Description: as §1

[17] = tested on: Epidermophyton floccosum; assay: MIC broth microdilution (CLSI); type: cell-based; conditions: Epidermophyon floccosum R-113
Description: as §1

[18] = tested on: Nannizzia gypsea; assay: MIC broth microdilution (CLSI); type: cell-based; conditions: Nannizzia gypsea R-131
Description: as §1

[19] = tested on: Nannizzia nana; assay: MIC broth microdilution (CLSI); type: cell-based; conditions: Nannizzia nana R-133
Description: as §1

[20] = tested on: Rhizopus oryzae; assay: checkerboard drug interaction (FICI, MICc); type: cell-based;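 further: simplified diagonal checkerboard screen pairing antifungals with FPPS inhibitors, FICI calculated under the Loewe additivity model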
Description: (§2) Drug interactions between antifungals and FPPS inhibitors were investigated using a simplified checkerboard diagonal screening method ([45]). […] FICIs were determined according to the Loewe additivity model ([17]).

[21] = tested on: Cryptococcus bacillisporus; assay: checkerboard drug interaction (FICI, MICc); type: cell-based;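 further: interaction of antifungals with FPPS inhibitors assessed by a simplified diagonal checkerboard screen, with FICI computed under the Loewe additivity model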
Description: as §2

[22] = tested on: Cryptococcus deneoformans; assay: checkerboard drug interaction (FICI, MICc); type: cell-based;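 further: simplified diagonal checkerboard screen pairing antifungals with FPPS inhibitors, FICI calculated under the Loewe additivity model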
Description: as §2

[23] = tested on: Fusarium oxysporum; assay: checkerboard drug interaction (FICI, MICc); type: cell-based;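 further: simplified diagonal checkerboard screen pairing antifungals with FPPS inhibitors, FICI calculated under the Loewe additivity model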
Description: as §2

[24] = tested on: Pichia kudriavzevii; assay: checkerboard drug interaction (FICI, MICc); type: cell-based;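 further: antifungal plus FPPS inhibitor interactions tested in a simplified diagonal checkerboard screen, with FICI calculated under the Loewe additivity model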
Description: as §2

[25] = tested on: Candida dubliniensis; assay: checkerboard drug interaction (FICI, MICc); type: cell-based;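 further: simplified diagonal checkerboard screen pairing antifungals with FPPS inhibitors, FICI calculated under the Loewe additivity model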
Description: as §2

[26] = tested on: Aspergillus terreus; assay: checkerboard drug interaction (FICI, MICc); type: cell-based;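 further: simplified diagonal checkerboard screen pairing antifungals with FPPS inhibitors, FICI derived by the Loewe additivity model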
Description: as §2

[27] = tested on: Aspergillus lentulus; assay: checkerboard drug interaction (FICI, MICc); type: cell-based;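 further: simplified diagonal checkerboard screen pairing antifungals with FPPS inhibitors, with the interaction index calculated under the Loewe additivity model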
Description: as §2

[28] = tested on: Aspergillus felis; assay: checkerboard drug interaction (FICI, MICc); type: cell-based
Description: as §2

[29] = tested on: Nannizzia nana; assay: checkerboard drug interaction (FICI, MICc); type: cell-based
Description: as §2

[30] = tested on: Fusarium solani; assay: MIC broth microdilution (CLSI); conditions: Fusarium solani 04-16-056-1862
Description: as §1

[31] = tested on: Microsporum canis; assay: MIC broth microdilution (CLSI); conditions: Microsporum canis R-232
Description: as §1

[32] = tested on: Trichophyton tonsurans; assay: MIC broth microdilution (CLSI); conditions: Trichophyton tonsurans R-168
Description: as §1

[33] = tested on: Lomentospora prolificans; assay: checkerboard drug interaction (FICI, MICc)
Description: as §2

[34] = tested on: Epidermophyton floccosum; assay: checkerboard drug interaction (FICI, MICc)
Description: as §2

[35] = tested on: Paraphyton cookei; assay: checkerboard drug interaction (FICI, MICc);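 further: simplified diagonal checkerboard screen pairing an antifungal with an FPPS inhibitor, FICI computed under the Loewe additivity model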
Description: as §2

[36] = tested on: Nannizzia gypsea; assay: checkerboard drug interaction (FICI, MICc);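 further: simplified diagonal checkerboard screen pairing antifungals with FPPS inhibitors, FICI derived using the Loewe additivity model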
Description: as §2

[37] = tested on: Trichophyton interdigitale; assay: checkerboard drug interaction (FICI, MICc);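 further: simplified diagonal checkerboard screen pairing antifungals with FPPS inhibitors, FICI values calculated under the Loewe additivity model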
Description: as §2

CC(=O)N1CCN(c2ccc(OCC3COC(Cn4ccnc4)(c4ccc(Cl)cc4Cl)O3)cc2)CC1 (centres unmarked) [KET, ketoconazole]
MIC / MEC [1]: >16 µg/mL | MIC / MEC [2]: 0.5 µg/mL (≈ 0.941 µM) | MIC / MEC [3]: 0.25 µg/mL (≈ 0.47 µM) | MIC / MEC [4]: 0.5 µg/mL (≈ 0.941 µM) | MIC / MEC [5]: 16 µg/mL (≈ 30.1 µM) | MIC / MEC [6]: 4 µg/mL (≈ 7.53 µM) | MIC / MEC [7]: 8 µg/mL (≈ 15.1 µM) | MIC / MEC [8]: 0.25 µg/mL (≈ 0.47 µM) | MIC / MEC [9]: 4 µg/mL (≈ 7.53 µM) | MIC / MEC [10]: 8 µg/mL (≈ 15.1 µM) | MIC / MEC [11]: 0.02 µg/mL (≈ 0.0376 µM) | MIC / MEC [12]: 8 µg/mL (≈ 15.1 µM) | MIC / MEC [13]: 2 µg/mL (≈ 3.76 µM) | MIC / MEC [14]: 16 µg/mL (≈ 30.1 µM) | MIC / MEC [15]: 16 µg/mL (≈ 30.1 µM) | MIC / MEC [16]: 8 µg/mL (≈ 15.1 µM) | MIC / MEC [17]: 2 µg/mL (≈ 3.76 µM) | MIC / MEC [18]: 16 µg/mL (≈ 30.1 µM) | MIC / MEC [19]: 0.5 µg/mL (≈ 0.941 µM) | antifungal MICc ([20]; in combination with 10-ZOL): 4 | antifungal MICc ([20]; in combination with ZOL): 16 | antifungal MICc ([21]; in combination with 10-ZOL): 0.125 | antifungal MICc ([21]; in combination with ZOL): 0.25 | antifungal MICc ([22]; in combination with 10-ZOL): 0.063 | antifungal MICc ([22]; in combination with ZOL): 0.03125 | antifungal MICc ([23]; in combination with 10-ZOL): 16 | antifungal MICc ([23]; in combination with ZOL): 4 | antifungal MICc ([24]; in combination with 10-ZOL): 0.25 | antifungal MICc ([24]; in combination with ZOL): 0.06 | antifungal MICc ([25]; in combination with 10-ZOL): 0.006 | antifungal MICc ([25]; in combination with ZOL): 0.005 | antifungal MICc ([26]; in combination with 10-ZOL): 2 | antifungal MICc ([26]; in combination with ZOL): 0.25 | antifungal MICc ([27]; in combination with 10-ZOL): 4 | antifungal MICc ([27]; in combination with ZOL): 4 | antifungal MICc ([28]; in combination with 10-ZOL): 4 | antifungal MICc ([28]; in combination with ZOL): 8 | antifungal MICc ([29]; in combination with 10-ZOL): 0.5 | antifungal MICc ([29]; in combination with ZOL): 0.13 | MIC / MEC [30]: 16 µg/mL (≈ 30.1 µM) | MIC / MEC [31]: 16 µg/mL (≈ 30.1 µM) | MIC / MEC [32]: 4 µg/mL (≈ 7.53 µM) | antifungal MICc ([33]; in combination with 10-ZOL): 0.25 | antifungal MICc ([33]; in combination with ZOL): 2 | antifungal MICc ([34]; in combination with 10-ZOL): 1 | antifungal MICc ([34]; in combination with ZOL): 0.5 | antifungal MICc ([35]; in combination with 10-ZOL): 1 | antifungal MICc ([35]; in combination with ZOL): 4 | antifungal MICc ([36]; in combination with 10-ZOL): 2 | antifungal MICc ([36]; in combination with ZOL): 1 | antifungal MICc ([37]; in combination with 10-ZOL): 0.5 | antifungal MICc ([37]; in combination with ZOL): 2

Nc1nc(=O)[nH]cc1F [5FC, 5-flucytosine]
MIC / MEC [1]: >64 µg/mL | MIC / MEC [2]: 0.5 µg/mL (≈ 3.87 µM) | MIC / MEC [3]: 4 µg/mL (≈ 31 µM) | MIC / MEC [4]: 4 µg/mL (≈ 31 µM) | MIC / MEC [5]: >64 µg/mL | MIC / MEC [6]: >64 µg/mL | MIC / MEC [7]: >64 µg/mL | MIC / MEC [8]: 16 µg/mL (≈ 124 µM) | MIC / MEC [9]: 2 µg/mL (≈ 15.5 µM) | MIC / MEC [10]: 0.5 µg/mL (≈ 3.87 µM) | MIC / MEC [11]: 0.25 µg/mL (≈ 1.94 µM) | MIC / MEC [12]: >64 µg/mL | MIC / MEC [13]: 64 µg/mL (≈ 496 µM) | MIC / MEC [14]: >64 µg/mL | MIC / MEC [15]: >64 µg/mL | MIC / MEC [16]: >64 µg/mL | MIC / MEC [17]: 64 µg/mL (≈ 496 µM) | MIC / MEC [18]: >64 µg/mL | MIC / MEC [19]: 32 µg/mL (≈ 248 µM) | antifungal MICc ([20]; in combination with 10-ZOL): 512 | antifungal MICc ([20]; in combination with ZOL): 256 | antifungal MICc ([21]; in combination with 10-ZOL): 1 | antifungal MICc ([21]; in combination with ZOL): 0.125 | antifungal MICc ([22]; in combination with 10-ZOL): 0.25 | antifungal MICc ([22]; in combination with ZOL): 0.5 | antifungal MICc ([23]; in combination with 10-ZOL): 512 | antifungal MICc ([23]; in combination with ZOL): 512 | antifungal MICc ([24]; in combination with 10-ZOL): 16 | antifungal MICc ([24]; in combination with ZOL): 2 | antifungal MICc ([25]; in combination with 10-ZOL): 0.125 | antifungal MICc ([25]; in combination with ZOL): 0.125 | antifungal MICc ([26]; in combination with 10-ZOL): 64 | antifungal MICc ([26]; in combination with ZOL): 32 | antifungal MICc ([27]; in combination with 10-ZOL): 512 | antifungal MICc ([27]; in combination with ZOL): 256 | antifungal MICc ([28]; in combination with 10-ZOL): 256 | antifungal MICc ([28]; in combination with ZOL): 64 | antifungal MICc ([29]; in combination with 10-ZOL): 32 | antifungal MICc ([29]; in combination with ZOL): 64 | MIC / MEC [30]: >64 µg/mL | MIC / MEC [31]: >64 µg/mL | MIC / MEC [32]: 64 µg/mL (≈ 496 µM) | antifungal MICc ([33]; in combination with 10-ZOL): 256 | antifungal MICc ([33]; in combination with ZOL): 256 | antifungal MICc ([34]; in combination with 10-ZOL): 32 | antifungal MICc ([34]; in combination with ZOL): 32 | antifungal MICc ([35]; in combination with 10-ZOL): 512 | antifungal MICc ([35]; in combination with ZOL): 512 | antifungal MICc ([36]; in combination with 10-ZOL): 512 | antifungal MICc ([36]; in combination with ZOL): 256 | antifungal MICc ([37]; in combination with 10-ZOL): 64 | antifungal MICc ([37]; in combination with ZOL): 128
